Laboratory results as given in patent publication US11738002B2, “Methods of treating neurological and psychiatric disorders” (Sunovion Pharmaceuticals Inc., priority 2020, dated 2023).

Columns and labels:
[1] = system: female Lister hooded rats; conditions: rat, in vivo
Excerpt: (§1) Experimentally naïve rats were housed individually in plastic cages containing bedding. Housing rooms were maintained under a 12/12-hour light/dark cycle at controlled ambient temperature and relative humidity. Animals were allowed to acclimate to laboratory conditions before the beginning of experiments and had free access to water. Access to food was restricted to facilitate training and maintenance of operant behavior with the exception of training of female rats in the MDMA drug discrimination study. Experiments were conducted in operant chambers (MED Associates, Inc., St. Albans, Vt., U.S.A.) located within sound-attenuating, ventilated cubicles. Each chamber was equipped with a stimulus light, lever(s) located near a food receptacle which was connected to a food pellet dispenser. Chambers used for reinstatement studies were also equipped with a Sonalert® tone generator.
The training substance was administered 15 minutes before the session. […] The percentage of total responses on the training drug-appropriate lever and response rates were calculated for each rat.

[2] = system: Female Sprague Dawley Rats; test: withdrawal-induced physical dependence study
Protocol: Animals were not dosed during the withdrawal phase. Dosing in the morning was staggered such that every animal was observed individually on each day.
Body weights were recorded prior to each dosing session on Day −6 to Day 46 and in the morning during the withdrawal phase. Only body weight recorded prior to the morning dosing session was used for statistical analysis. Food and water intake were measured once daily in the morning from Day −6 to Day 46 just prior to dosing, and in the morning of the withdrawal phase. Body temperatures were measured once daily using a rectal probe from Day −6 to Day 46 just prior to dosing, and, immediately prior to body weight measurement during the withdrawal. A detailed observation checklist was used to record any physical or behavioral signs of pharmacological effect during dosing and of drug dependence in the withdrawal phase. Rats were observed on a workbench in their open topped home cages (in the holding room where they were kept throughout the study) for a 2 min period 1 hr after the morning dose during the baseline and dosing phases and twice daily on Day 46 and during the withdrawal phase. […] For all other endpoints, withdrawal begins on Day 47.

[3] = system: male SD rats trained to self-administer heroin; test: self-administration (heroin substitution) test; conditions: Sprague-Dawley, rat, in vivo
Excerpt: as §1

Which “generalization to MDMA” value [1] does the source give for `O=C1CC2(CCCC2)CC(=O)N1CCCCN1CCN(c2ncccn2)CC1` [buspirone] here?
Its value is 37.2±20.4%.

What about the “weak partial generalization to the cue elicited by MDMA” value [1] of the same compound?
Its value is < 50%.

Which results are given for `CN1C(=O)CN=C(c2ccccc2)c2cc(Cl)ccc21` [diazepam]?
weight of the rats vs vehicle at the end of the dosing phase ([2]; 10/15/20 mg/kg p.o. b.i.d. on Days 1-5/6-18/19-46): 5.4%; withdrawal signs on cessation of dosing ([2]; 10/15/20 mg/kg p.o. b.i.d., 46 days): Physical dependence was demonstrated

Which “mean number of infusions, heroin acquisition session” value [3] does the source give for `CC(=O)Oc1ccc2c3c1O[C@H]1[C@@H](OC(C)=O)C=C[C@H]4[C@@H](C2)N(C)CC[C@@]341` [heroin] here?
Its value is 19.0±0.4.
